According to ChEMBL document CHEMBL3797052 (Eur J Med Chem, 2016):

Test system: not listed separately
Experiment: Cytotoxicity against human HCT116 cells assessed as growth inhibition at 100 uM after 2 days by MTT assay
Type: functional
Conditions: HCT-116, 48 h, read-out: GI

| Compound | inhibition of growth at 100 µM [%] |
| --- | --- |
| CNC(=O)c1cc(Oc2ccc3nc(NC(=O)Nc4ccc(Cl)cc4)sc3c2)ccn1 | 85.2 |

Test system: not listed separately
Experiment: Cytotoxicity against human HCT116 cells assessed as growth inhibition at 10 uM after 2 days by MTT assay
Type: functional
Conditions: HCT-116, 48 h, read-out: GI

| Compound | inhibition of growth at 10 µM [%] |
| --- | --- |
| CNC(=O)c1cc(Oc2ccc3nc(NC(=O)Nc4ccc(Cl)cc4)sc3c2)ccn1 | 57.4 |

Test system: not listed separately
Experiment: Cytotoxicity against human SKBR3 cells assessed as growth inhibition at 100 uM after 2 days by MTT assay
Type: functional
Conditions: SK-BR-3, 48 h, read-out: GI

| Compound | inhibition of growth at 100 µM [%] |
| --- | --- |
| CNC(=O)c1cc(Oc2ccc3nc(NC(=O)Nc4ccc(Cl)cc4)sc3c2)ccn1 | 77.4 |

Test system: not listed separately
Experiment: Cytotoxicity against human SKBR3 cells assessed as growth inhibition at 10 uM after 2 days by MTT assay
Type: functional
Conditions: SK-BR-3, 48 h, read-out: GI

| Compound | inhibition of growth at 10 µM [%] |
| --- | --- |
| CNC(=O)c1cc(Oc2ccc3nc(NC(=O)Nc4ccc(Cl)cc4)sc3c2)ccn1 | 50.8 |

Test system: not listed separately
Experiment: Antiproliferative activity against human MOLT4 cells assessed as cell growth at 10^-5 M after 48 hrs by sulforhodamine B assay
Type: functional
Conditions: MOLT-4, 48 h, read-out: Activity

| Compound | growth at 10 µM [%] |
| --- | --- |
| CNC(=O)c1cc(Oc2ccc3nc(NC(=O)Nc4ccc(Cl)cc4)sc3c2)ccn1 | 85.4 |

Test system: not listed separately
Experiment: Antiproliferative activity against human RPMI8226 cells assessed as cell growth at 10^-5 M after 48 hrs by sulforhodamine B assay
Type: functional
Conditions: RPMI-8226, 48 h, read-out: Activity

| Compound | growth at 10 µM [%] |
| --- | --- |
| CNC(=O)c1cc(Oc2ccc3nc(NC(=O)Nc4ccc(Cl)cc4)sc3c2)ccn1 | 81.7 |

Test system: A549
Experiment: Antiproliferative activity against human A549/ATCC cells assessed as cell growth at 10^-5 M after 48 hrs by sulforhodamine B assay
Type: functional
Conditions: A549, 48 h, read-out: Activity

| Compound | growth at 10 µM [%] |
| --- | --- |
| CNC(=O)c1cc(Oc2ccc3nc(NC(=O)Nc4ccc(Cl)cc4)sc3c2)ccn1 | 44.1 |

Test system: not listed separately
Experiment: Antiproliferative activity against human HOP62 cells assessed as cell growth at 10^-5 M after 48 hrs by sulforhodamine B assay
Type: functional
Conditions: HOP-62, 48 h, read-out: Activity

| Compound | growth at 10 µM [%] |
| --- | --- |
| CNC(=O)c1cc(Oc2ccc3nc(NC(=O)Nc4ccc(Cl)cc4)sc3c2)ccn1 | 6.54 |

Test system: not listed separately
Experiment: Antiproliferative activity against human HOP92 cells assessed as cell growth at 10^-5 M after 48 hrs by sulforhodamine B assay
Type: functional
Conditions: HOP-92, 48 h, read-out: Activity

| Compound | growth at 10 µM [%] |
| --- | --- |
| CNC(=O)c1cc(Oc2ccc3nc(NC(=O)Nc4ccc(Cl)cc4)sc3c2)ccn1 | 63.3 |

Test system: NCI-H226
Experiment: Antiproliferative activity against human NCI-H226 cells assessed as cell growth at 10^-5 M after 48 hrs by sulforhodamine B assay
Type: functional
Conditions: NCI-H226, 48 h, read-out: Activity

| Compound | growth at 10 µM [%] |
| --- | --- |
| CNC(=O)c1cc(Oc2ccc3nc(NC(=O)Nc4ccc(Cl)cc4)sc3c2)ccn1 | 67.9 |

Test system: NCI-H460
Experiment: Antiproliferative activity against human NCI-H460 cells assessed as cell growth at 10^-5 M after 48 hrs by sulforhodamine B assay
Type: functional
Conditions: NCI-H460, 48 h, read-out: Activity

| Compound | growth at 10 µM [%] |
| --- | --- |
| CNC(=O)c1cc(Oc2ccc3nc(NC(=O)Nc4ccc(Cl)cc4)sc3c2)ccn1 | 64.3 |

Test system: NCI-H522
Experiment: Antiproliferative activity against human NCI-H522 cells assessed as cell growth at 10^-5 M after 48 hrs by sulforhodamine B assay
Type: functional
Conditions: NCI-H522, 48 h, read-out: Activity

| Compound | growth at 10 µM [%] |
| --- | --- |
| CNC(=O)c1cc(Oc2ccc3nc(NC(=O)Nc4ccc(Cl)cc4)sc3c2)ccn1 | 78 |

Test system: not listed separately
Experiment: Antiproliferative activity against human COLO205 cells assessed as cell growth at 10^-5 M after 48 hrs by sulforhodamine B assay
Type: functional
Conditions: COLO 205, 48 h, read-out: Activity

| Compound | growth at 10 µM [%] |
| --- | --- |
| CNC(=O)c1cc(Oc2ccc3nc(NC(=O)Nc4ccc(Cl)cc4)sc3c2)ccn1 | 79.4 |

Test system: not listed separately
Experiment: Antiproliferative activity against human HCT15 cells assessed as cell growth at 10^-5 M after 48 hrs by sulforhodamine B assay
Type: functional
Conditions: HCT-15, 48 h, read-out: Activity

| Compound | growth at 10 µM [%] |
| --- | --- |
| CNC(=O)c1cc(Oc2ccc3nc(NC(=O)Nc4ccc(Cl)cc4)sc3c2)ccn1 | 84.8 |

Test system: KM12
Experiment: Antiproliferative activity against human KM12 cells assessed as cell growth at 10^-5 M after 48 hrs by sulforhodamine B assay
Type: functional
Conditions: KM12, 48 h, read-out: Activity

| Compound | growth at 10 µM [%] |
| --- | --- |
| CNC(=O)c1cc(Oc2ccc3nc(NC(=O)Nc4ccc(Cl)cc4)sc3c2)ccn1 | 70 |

Test system: not listed separately
Experiment: Antiproliferative activity against human SNB75 cells assessed as cell growth at 10^-5 M after 48 hrs by sulforhodamine B assay
Type: functional
Conditions: SNB-75, 48 h, read-out: Activity

| Compound | growth at 10 µM [%] |
| --- | --- |
| CNC(=O)c1cc(Oc2ccc3nc(NC(=O)Nc4ccc(Cl)cc4)sc3c2)ccn1 | 50.6 |

Test system: Malme-3M
Experiment: Antiproliferative activity against human MALME-3M cells assessed as cell growth at 10^-5 M after 48 hrs by sulforhodamine B assay
Type: functional
Conditions: read-out: Activity

| Compound | growth at 10 µM [%] |
| --- | --- |
| CNC(=O)c1cc(Oc2ccc3nc(NC(=O)Nc4ccc(Cl)cc4)sc3c2)ccn1 | 17.7 |

Test system: M14
Experiment: Antiproliferative activity against human M14 cells assessed as cell growth at 10^-5 M after 48 hrs by sulforhodamine B assay
Type: functional
Conditions: M14, 48 h, read-out: Activity

| Compound | growth at 10 µM [%] |
| --- | --- |
| CNC(=O)c1cc(Oc2ccc3nc(NC(=O)Nc4ccc(Cl)cc4)sc3c2)ccn1 | 63 |

Test system: SK-MEL-2
Experiment: Antiproliferative activity against human SK-MEL-2 cells assessed as cell growth at 10^-5 M after 48 hrs by sulforhodamine B assay
Type: functional
Conditions: SK-MEL-2, 48 h, read-out: Activity

| Compound | growth at 10 µM [%] |
| --- | --- |
| CNC(=O)c1cc(Oc2ccc3nc(NC(=O)Nc4ccc(Cl)cc4)sc3c2)ccn1 | 81.1 |

Test system: not listed separately
Experiment: Antiproliferative activity against human IGROV1 cells assessed as cell growth at 10^-5 M after 48 hrs by sulforhodamine B assay
Type: functional
Conditions: IGROV-1, 48 h, read-out: Activity

| Compound | growth at 10 µM [%] |
| --- | --- |
| CNC(=O)c1cc(Oc2ccc3nc(NC(=O)Nc4ccc(Cl)cc4)sc3c2)ccn1 | 83.6 |

Test system: not listed separately
Experiment: Antiproliferative activity against human OVCAR3 cells assessed as cell growth at 10^-5 M after 48 hrs by sulforhodamine B assay
Type: functional
Conditions: OVCAR-3, 48 h, read-out: Activity

| Compound | growth at 10 µM [%] |
| --- | --- |
| CNC(=O)c1cc(Oc2ccc3nc(NC(=O)Nc4ccc(Cl)cc4)sc3c2)ccn1 | 48.8 |

Test system: not listed separately
Experiment: Antiproliferative activity against human OVCAR4 cells assessed as cell growth at 10^-5 M after 48 hrs by sulforhodamine B assay
Type: functional
Conditions: OVCAR-4, 48 h, read-out: Activity

| Compound | growth at 10 µM [%] |
| --- | --- |
| CNC(=O)c1cc(Oc2ccc3nc(NC(=O)Nc4ccc(Cl)cc4)sc3c2)ccn1 | 13 |

Test system: not listed separately
Experiment: Antiproliferative activity against human OVCAR8 cells assessed as cell growth at 10^-5 M after 48 hrs by sulforhodamine B assay
Type: functional
Conditions: OVCAR-8, 48 h, read-out: Activity

| Compound | growth at 10 µM [%] |
| --- | --- |
| CNC(=O)c1cc(Oc2ccc3nc(NC(=O)Nc4ccc(Cl)cc4)sc3c2)ccn1 | 57.2 |

Test system: not listed separately
Experiment: Antiproliferative activity against human SKOV3 cells assessed as cell growth at 10^-5 M after 48 hrs by sulforhodamine B assay
Type: functional
Conditions: SK-OV-3, 48 h, read-out: Activity

| Compound | growth at 10 µM [%] |
| --- | --- |
| CNC(=O)c1cc(Oc2ccc3nc(NC(=O)Nc4ccc(Cl)cc4)sc3c2)ccn1 | 82 |

Test system: 786-0
Experiment: Antiproliferative activity against human 786-0 cells assessed as cell growth at 10^-5 M after 48 hrs by sulforhodamine B assay
Type: functional
Conditions: 786-0, 48 h, read-out: Activity

| Compound | growth at 10 µM [%] |
| --- | --- |
| CNC(=O)c1cc(Oc2ccc3nc(NC(=O)Nc4ccc(Cl)cc4)sc3c2)ccn1 | 75.3 |

Test system: A498
Experiment: Antiproliferative activity against human A498 cells assessed as cell growth at 10^-5 M after 48 hrs by sulforhodamine B assay
Type: functional
Conditions: A498, 48 h, read-out: Activity

| Compound | growth at 10 µM [%] |
| --- | --- |
| CNC(=O)c1cc(Oc2ccc3nc(NC(=O)Nc4ccc(Cl)cc4)sc3c2)ccn1 | 117 |

Test system: not listed separately
Experiment: Antiproliferative activity against human Caki1 cells assessed as cell growth at 10^-5 M after 48 hrs by sulforhodamine B assay
Type: functional
Conditions: CAKI-1, 48 h, read-out: Activity

| Compound | growth at 10 µM [%] |
| --- | --- |
| CNC(=O)c1cc(Oc2ccc3nc(NC(=O)Nc4ccc(Cl)cc4)sc3c2)ccn1 | 94.7 |

Test system: SN12C
Experiment: Antiproliferative activity against human SN12C cells assessed as cell growth at 10^-5 M after 48 hrs by sulforhodamine B assay
Type: functional
Conditions: read-out: Activity

| Compound | growth at 10 µM [%] |
| --- | --- |
| CNC(=O)c1cc(Oc2ccc3nc(NC(=O)Nc4ccc(Cl)cc4)sc3c2)ccn1 | 62.4 |

Test system: not listed separately
Experiment: Antiproliferative activity against human TK10 cells assessed as cell growth at 10^-5 M after 48 hrs by sulforhodamine B assay
Type: functional
Conditions: TK-10, 48 h, read-out: Activity

| Compound | growth at 10 µM [%] |
| --- | --- |
| CNC(=O)c1cc(Oc2ccc3nc(NC(=O)Nc4ccc(Cl)cc4)sc3c2)ccn1 | 62.3 |

Test system: not listed separately
Experiment: Antiproliferative activity against human UO31 cells assessed as cell growth at 10^-5 M after 48 hrs by sulforhodamine B assay
Type: functional
Conditions: UO-31, 48 h, read-out: Activity

| Compound | growth at 10 µM [%] |
| --- | --- |
| CNC(=O)c1cc(Oc2ccc3nc(NC(=O)Nc4ccc(Cl)cc4)sc3c2)ccn1 | 62.5 |

Test system: MCF7
Experiment: Antiproliferative activity against human MCF7 cells assessed as cell growth at 10^-5 M after 48 hrs by sulforhodamine B assay
Type: functional
Conditions: MCF7, 48 h, read-out: Activity

| Compound | growth at 10 µM [%] |
| --- | --- |
| CNC(=O)c1cc(Oc2ccc3nc(NC(=O)Nc4ccc(Cl)cc4)sc3c2)ccn1 | 69.5 |

Test system: MDA-MB-231
Experiment: Antiproliferative activity against human MDA-MB-231 cells assessed as cell growth at 10^-5 M after 48 hrs by sulforhodamine B assay
Type: functional
Conditions: MDA-MB-231, 48 h, read-out: Activity

| Compound | growth at 10 µM [%] |
| --- | --- |
| CNC(=O)c1cc(Oc2ccc3nc(NC(=O)Nc4ccc(Cl)cc4)sc3c2)ccn1 | 34.4 |

Test system: not listed separately
Experiment: Antiproliferative activity against human Hs 578T cells assessed as cell growth at 10^-5 M after 48 hrs by sulforhodamine B assay
Type: functional
Conditions: read-out: Activity

| Compound | growth at 10 µM [%] |
| --- | --- |
| CNC(=O)c1cc(Oc2ccc3nc(NC(=O)Nc4ccc(Cl)cc4)sc3c2)ccn1 | 30.1 |

Test system: not listed separately
Experiment: Antiproliferative activity against human BT549 cells assessed as cell growth at 10^-5 M after 48 hrs by sulforhodamine B assay
Type: functional
Conditions: BT-549, 48 h, read-out: Activity

| Compound | growth at 10 µM [%] |
| --- | --- |
| CNC(=O)c1cc(Oc2ccc3nc(NC(=O)Nc4ccc(Cl)cc4)sc3c2)ccn1 | 102 |

Test system: T47D
Experiment: Antiproliferative activity against human T47D cells assessed as cell growth at 10^-5 M after 48 hrs by sulforhodamine B assay
Type: functional
Conditions: read-out: Activity

| Compound | growth at 10 µM [%] |
| --- | --- |
| CNC(=O)c1cc(Oc2ccc3nc(NC(=O)Nc4ccc(Cl)cc4)sc3c2)ccn1 | 44 |
